Assay results taken from PMC9856672, “SGC-CAMKK2-1: A Chemical Probe for CAMKK2” (Cells, 2023).

Tests used:
PIM3 = biological target: T1, PIM3 (Homo sapiens, UniProt Q86V86); assay: KINOMEscan at 1 μM, PIM3; format: binding; conditions: 1000 nM, read-out: Percent Control
T1 construct: purchased Eurofins DiscoverX KINOMEscan
From the text: (§1) Supplement cells-12-00287-s001.zip/File S2. KinomeScan data for the CAMKK2 probe and negative control.xlsx, sheet "SGC-CAMKK2-1N" | column: Percent Control

CSNK2A1 = biological target: T2, CSNK2A1 (Homo sapiens, UniProt P68400); assay: KINOMEscan at 1 μM, CSNK2A1; format: binding; conditions: 1000 nM, read-out: Percent Control
T2 construct: purchased Eurofins DiscoverX KINOMEscan
From the text: as §1

MARK4 = biological target: T3, MARK4 (Homo sapiens, UniProt Q96L34); assay: KINOMEscan binding assay at 1 μM, MARK4; conditions: Compound Concentration 1000 nM; read-out: Percent Control
T3 construct: purchased Eurofins DiscoverX KINOMEscan
From the text: as §1

CDKL1 = biological target: T4, CDKL1 (Homo sapiens, UniProt Q00532); assay: KINOMEscan at 1 μM, CDKL1; format: binding; conditions: 1000 nM, read-out: Percent Control
T4 construct: purchased Eurofins DiscoverX KINOMEscan
T4 sequence (Q00532 whole entry): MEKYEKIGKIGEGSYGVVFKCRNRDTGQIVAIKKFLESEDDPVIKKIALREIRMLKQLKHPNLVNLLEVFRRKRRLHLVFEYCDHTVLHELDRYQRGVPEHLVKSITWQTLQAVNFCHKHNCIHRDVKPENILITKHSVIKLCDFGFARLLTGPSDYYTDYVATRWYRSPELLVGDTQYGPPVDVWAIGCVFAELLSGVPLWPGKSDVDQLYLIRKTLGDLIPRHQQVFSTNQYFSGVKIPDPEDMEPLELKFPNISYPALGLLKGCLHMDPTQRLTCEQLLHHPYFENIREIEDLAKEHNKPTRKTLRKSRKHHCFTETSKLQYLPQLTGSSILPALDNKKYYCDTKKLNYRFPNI
From the text: as §1

ALK(C1156Y) = biological target: T5, ALK(C1156Y) (Homo sapiens, UniProt Q9UM73, C1156Y); assay: KINOMEscan at 1 μM, ALK(C1156Y); format: binding; conditions: 1000 nM, read-out: Percent Control
T5 construct: purchased Eurofins DiscoverX KINOMEscan
From the text: as §1

ACVR2B = biological target: T6, ACVR2B (Homo sapiens, UniProt Q13705); assay: KINOMEscan at 1 μM, ACVR2B; format: binding; conditions: 1000 nM, read-out: Percent Control
T6 construct: purchased Eurofins DiscoverX KINOMEscan
From the text: as §1

TESK1 = biological target: T7, TESK1 (Homo sapiens, UniProt Q15569); assay: KINOMEscan at 1 μM, TESK1; format: binding; conditions: 1000 nM, read-out: Percent Control
T7 construct: purchased Eurofins DiscoverX KINOMEscan
T7 sequence (Q15569 whole entry): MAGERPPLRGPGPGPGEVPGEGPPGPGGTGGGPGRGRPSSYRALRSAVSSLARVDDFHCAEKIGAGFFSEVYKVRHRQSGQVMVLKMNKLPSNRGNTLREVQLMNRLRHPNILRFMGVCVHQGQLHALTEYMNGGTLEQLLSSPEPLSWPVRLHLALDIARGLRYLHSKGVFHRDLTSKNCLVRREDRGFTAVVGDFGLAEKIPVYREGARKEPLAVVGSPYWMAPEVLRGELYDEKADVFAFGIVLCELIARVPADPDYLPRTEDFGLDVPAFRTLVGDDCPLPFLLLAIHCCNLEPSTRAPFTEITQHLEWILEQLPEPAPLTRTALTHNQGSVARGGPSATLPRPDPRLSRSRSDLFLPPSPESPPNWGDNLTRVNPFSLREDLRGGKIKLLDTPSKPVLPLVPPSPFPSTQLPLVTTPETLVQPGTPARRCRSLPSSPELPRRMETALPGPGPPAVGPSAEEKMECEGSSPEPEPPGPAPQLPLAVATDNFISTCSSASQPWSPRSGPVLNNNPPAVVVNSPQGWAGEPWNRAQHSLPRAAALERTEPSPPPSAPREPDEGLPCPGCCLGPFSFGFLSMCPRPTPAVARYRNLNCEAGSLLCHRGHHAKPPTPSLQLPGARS
From the text: as §1

RET(M918T) = biological target: T8, RET(M918T) (Homo sapiens, UniProt P07949, M918T); assay: KINOMEscan at 1 μM, RET(M918T); format: binding; conditions: 1000 nM, read-out: Percent Control
T8 construct: purchased Eurofins DiscoverX KINOMEscan
T8 sequence (P07949 29-1114 M918T): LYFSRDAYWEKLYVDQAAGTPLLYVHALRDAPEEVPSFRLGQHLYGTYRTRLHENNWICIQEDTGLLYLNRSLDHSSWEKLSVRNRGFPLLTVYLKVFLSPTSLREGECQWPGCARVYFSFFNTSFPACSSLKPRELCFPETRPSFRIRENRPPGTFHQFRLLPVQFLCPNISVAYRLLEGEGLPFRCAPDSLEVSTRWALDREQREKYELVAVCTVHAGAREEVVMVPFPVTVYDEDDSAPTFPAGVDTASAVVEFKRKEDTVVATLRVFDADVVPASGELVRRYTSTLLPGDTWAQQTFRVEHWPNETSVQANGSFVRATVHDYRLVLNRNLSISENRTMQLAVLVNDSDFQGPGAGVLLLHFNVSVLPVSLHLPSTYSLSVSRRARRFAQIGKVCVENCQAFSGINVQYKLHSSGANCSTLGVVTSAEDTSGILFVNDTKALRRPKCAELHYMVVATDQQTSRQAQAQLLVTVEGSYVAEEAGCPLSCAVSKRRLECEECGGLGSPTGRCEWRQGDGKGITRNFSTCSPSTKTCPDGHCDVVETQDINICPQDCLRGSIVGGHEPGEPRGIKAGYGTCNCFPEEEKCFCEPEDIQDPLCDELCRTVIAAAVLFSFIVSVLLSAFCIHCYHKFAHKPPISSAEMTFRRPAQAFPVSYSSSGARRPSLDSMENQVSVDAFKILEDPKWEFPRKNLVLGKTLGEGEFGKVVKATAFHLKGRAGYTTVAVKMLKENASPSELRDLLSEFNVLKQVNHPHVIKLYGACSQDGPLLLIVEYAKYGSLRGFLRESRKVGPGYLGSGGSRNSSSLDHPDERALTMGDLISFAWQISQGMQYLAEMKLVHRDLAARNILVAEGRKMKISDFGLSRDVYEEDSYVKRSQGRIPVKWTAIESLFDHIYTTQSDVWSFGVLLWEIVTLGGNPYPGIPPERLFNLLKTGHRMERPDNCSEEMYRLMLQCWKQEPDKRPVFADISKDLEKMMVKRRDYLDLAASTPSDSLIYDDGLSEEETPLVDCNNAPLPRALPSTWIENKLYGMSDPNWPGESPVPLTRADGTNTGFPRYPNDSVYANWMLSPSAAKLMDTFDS
From the text: as §1

PRKCD = biological target: T9, PRKCD (Homo sapiens, UniProt Q05655); assay: KINOMEscan binding assay at 1 μM, PRKCD; conditions: Compound Concentration 1000 nM; read-out: Percent Control
T9 construct: purchased Eurofins DiscoverX KINOMEscan
From the text: as §1

CSNK1G3 = biological target: T10, CSNK1G3 (Homo sapiens, UniProt Q9Y6M4); assay: KINOMEscan at 1 μM, CSNK1G3; format: binding; conditions: 1000 nM, read-out: Percent Control
T10 construct: purchased Eurofins DiscoverX KINOMEscan
From the text: as §1

EPHA4 = biological target: T11, EPHA4 (Homo sapiens, UniProt P54764); assay: KINOMEscan at 1 μM, EPHA4; format: binding; conditions: 1000 nM, read-out: Percent Control
T11 construct: purchased Eurofins DiscoverX KINOMEscan
From the text: as §1

RAF1 = biological target: T12, RAF1 (Homo sapiens, UniProt P04049); assay: DiscoverX KINOMEscan binding assay at 1 μM, RAF1; conditions: Compound Concentration 1000 nM, read-out: Percent Control
T12 construct: purchased Eurofins DiscoverX KINOMEscan
From the text: (§2) Supplement cells-12-00287-s001.zip/File S2. KinomeScan data for the CAMKK2 probe and negative control.xlsx, sheet "SGC-CAMKK2-1" | column: Percent Control

LZK = biological target: T13, LZK (Homo sapiens, UniProt O43283); assay: KINOMEscan 1 μM, LZK; format: binding; conditions: 1000 nM; Entrez MAP3K13; read-out: Percent Control
T13 construct: purchased Eurofins DiscoverX KINOMEscan
From the text: as §2

SRMS = biological target: T14, SRMS (Homo sapiens, UniProt Q9H3Y6); assay: DiscoverX KINOMEscan binding assay at 1 μM, SRMS; conditions: Compound Concentration 1000 nM, read-out: Percent Control
T14 construct: purchased Eurofins DiscoverX KINOMEscan
T14 sequence (Q9H3Y6 whole entry): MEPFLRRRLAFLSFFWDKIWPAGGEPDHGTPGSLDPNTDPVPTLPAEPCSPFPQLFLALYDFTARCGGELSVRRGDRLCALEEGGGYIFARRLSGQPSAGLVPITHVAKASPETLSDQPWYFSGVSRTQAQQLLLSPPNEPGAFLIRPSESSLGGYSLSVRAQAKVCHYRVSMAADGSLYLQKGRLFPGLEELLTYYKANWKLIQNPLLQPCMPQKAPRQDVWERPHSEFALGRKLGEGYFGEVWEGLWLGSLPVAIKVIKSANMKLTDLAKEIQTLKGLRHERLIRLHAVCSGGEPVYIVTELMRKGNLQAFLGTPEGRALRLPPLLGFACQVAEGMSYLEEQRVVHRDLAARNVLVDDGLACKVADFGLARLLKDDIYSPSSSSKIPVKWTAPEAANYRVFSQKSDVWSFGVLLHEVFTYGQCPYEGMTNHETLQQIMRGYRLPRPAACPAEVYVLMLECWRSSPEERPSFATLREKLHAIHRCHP
From the text: as §2

LIMK1 = biological target: T15, LIMK1 (Homo sapiens, UniProt P53667); assay: KINOMEscan 1 μM, LIMK1; format: binding; conditions: 1000 nM; Entrez LIMK1; read-out: Percent Control
T15 construct: purchased Eurofins DiscoverX KINOMEscan
T15 sequence (P53667 whole entry): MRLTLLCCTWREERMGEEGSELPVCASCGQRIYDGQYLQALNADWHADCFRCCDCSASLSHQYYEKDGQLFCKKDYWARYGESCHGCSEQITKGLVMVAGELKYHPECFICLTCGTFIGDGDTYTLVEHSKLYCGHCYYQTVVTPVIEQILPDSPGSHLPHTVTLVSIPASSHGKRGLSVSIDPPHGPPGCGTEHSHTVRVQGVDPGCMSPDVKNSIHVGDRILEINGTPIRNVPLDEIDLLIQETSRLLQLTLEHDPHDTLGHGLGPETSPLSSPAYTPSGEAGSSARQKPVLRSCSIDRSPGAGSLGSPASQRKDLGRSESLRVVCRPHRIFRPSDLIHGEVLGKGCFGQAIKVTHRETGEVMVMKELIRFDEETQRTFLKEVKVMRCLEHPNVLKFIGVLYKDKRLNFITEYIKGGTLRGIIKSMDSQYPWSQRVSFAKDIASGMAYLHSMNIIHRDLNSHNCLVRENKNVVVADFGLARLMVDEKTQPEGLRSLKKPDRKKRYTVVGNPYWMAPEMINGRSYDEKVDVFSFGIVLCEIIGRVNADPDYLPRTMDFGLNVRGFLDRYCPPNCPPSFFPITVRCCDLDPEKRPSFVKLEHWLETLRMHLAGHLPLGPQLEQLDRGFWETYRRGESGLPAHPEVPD
From the text: as §2

ERBB2 = biological target: T16, ERBB2 (Homo sapiens, UniProt P04626); assay: KINOMEscan 1 μM, ERBB2; format: binding; conditions: 1000 nM; Entrez ERBB2; read-out: Percent Control
T16 construct: purchased Eurofins DiscoverX KINOMEscan
From the text: as §2

SIK2 = biological target: T17, SIK2 (Homo sapiens, UniProt Q9H0K1); assay: KINOMEscan 1 μM, SIK2; format: binding; conditions: 1000 nM; Entrez SIK2; read-out: Percent Control
T17 construct: purchased Eurofins DiscoverX KINOMEscan
From the text: as §2

NEK10 = biological target: T18, NEK10 (Homo sapiens, UniProt Q6ZWH5); assay: KINOMEscan 1 μM, NEK10; format: binding; conditions: 1000 nM; Entrez NEK10; read-out: Percent Control
T18 construct: purchased Eurofins DiscoverX KINOMEscan
From the text: as §2

PIK3CB = biological target: T19, PIK3CB (Homo sapiens, UniProt P42338); assay: DiscoverX KINOMEscan binding assay at 1 μM, PIK3CB; conditions: Compound Concentration 1000 nM, read-out: Percent Control
T19 construct: purchased Eurofins DiscoverX KINOMEscan
From the text: as §2

MEK3 = biological target: T20, MEK3 (Homo sapiens, UniProt P46734); assay: KINOMEscan 1 μM, MEK3; format: binding; conditions: 1000 nM; Entrez MAP2K3; read-out: Percent Control
T20 construct: purchased Eurofins DiscoverX KINOMEscan
T20 sequence (P46734 whole entry): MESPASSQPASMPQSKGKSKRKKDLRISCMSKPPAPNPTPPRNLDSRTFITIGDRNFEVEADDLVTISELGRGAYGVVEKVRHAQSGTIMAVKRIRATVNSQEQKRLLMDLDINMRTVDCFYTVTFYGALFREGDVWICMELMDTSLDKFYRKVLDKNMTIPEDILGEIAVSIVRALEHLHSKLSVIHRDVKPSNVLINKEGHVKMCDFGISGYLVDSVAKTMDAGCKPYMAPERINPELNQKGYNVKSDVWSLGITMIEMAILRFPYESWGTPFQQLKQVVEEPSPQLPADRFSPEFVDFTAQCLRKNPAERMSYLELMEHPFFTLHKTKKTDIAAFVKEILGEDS
From the text: as §2

NDR1 = biological target: T21, NDR1 (Homo sapiens, UniProt Q15208); assay: KINOMEscan 1 μM, NDR1; format: binding; conditions: 1000 nM; Entrez STK38; read-out: Percent Control
T21 construct: purchased Eurofins DiscoverX KINOMEscan
From the text: as §2

LTK = biological target: T22, LTK (Homo sapiens, UniProt P29376); assay: KINOMEscan 1 μM, LTK; format: binding; conditions: 1000 nM; Entrez LTK; read-out: Percent Control
T22 construct: purchased Eurofins DiscoverX KINOMEscan
From the text: as §2

ACVR1 = biological target: T23, ACVR1 (Homo sapiens, UniProt Q04771); assay: KINOMEscan 1 μM, ACVR1; format: binding; conditions: 1000 nM; Entrez ACVR1; read-out: Percent Control
T23 construct: purchased Eurofins DiscoverX KINOMEscan
From the text: as §2

ERK8 = biological target: T24, ERK8 (Homo sapiens, UniProt Q8TD08); assay: KINOMEscan 1 μM, ERK8; format: binding; conditions: 1000 nM; Entrez MAPK15; read-out: Percent Control
T24 construct: purchased Eurofins DiscoverX KINOMEscan
T24 sequence (Q8TD08 whole entry): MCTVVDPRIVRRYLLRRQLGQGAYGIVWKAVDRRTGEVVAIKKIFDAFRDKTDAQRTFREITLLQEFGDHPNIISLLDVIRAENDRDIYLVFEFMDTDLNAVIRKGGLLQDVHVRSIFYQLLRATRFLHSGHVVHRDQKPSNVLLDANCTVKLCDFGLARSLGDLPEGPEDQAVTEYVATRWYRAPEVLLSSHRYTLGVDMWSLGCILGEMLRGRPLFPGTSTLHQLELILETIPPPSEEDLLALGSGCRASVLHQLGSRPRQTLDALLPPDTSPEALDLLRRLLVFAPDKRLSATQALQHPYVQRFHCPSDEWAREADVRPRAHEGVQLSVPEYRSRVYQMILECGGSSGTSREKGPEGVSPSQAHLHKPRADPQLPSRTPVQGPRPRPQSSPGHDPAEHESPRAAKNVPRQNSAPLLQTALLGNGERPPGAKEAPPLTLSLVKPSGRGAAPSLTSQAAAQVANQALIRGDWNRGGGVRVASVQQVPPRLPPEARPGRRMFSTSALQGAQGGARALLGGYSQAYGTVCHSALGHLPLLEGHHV
From the text: as §2

EGFR(G719S) = biological target: T25, EGFR(G719S) (Homo sapiens, UniProt P00533, G719S); assay: KINOMEscan 1 μM, EGFR(G719S); format: binding; conditions: 1000 nM; Entrez EGFR; read-out: Percent Control
T25 construct: purchased Eurofins DiscoverX KINOMEscan
From the text: as §2

ARK5 = biological target: T26, ARK5 (Homo sapiens, UniProt O60285); assay: KINOMEscan 1 μM, ARK5; format: binding; conditions: 1000 nM; Entrez NUAK1; read-out: Percent Control
T26 construct: purchased Eurofins DiscoverX KINOMEscan
From the text: as §2

IRAK4 = biological target: T27, IRAK4 (Homo sapiens, UniProt Q9NWZ3); assay: KINOMEscan 1 μM, IRAK4; format: binding; conditions: 1000 nM; Entrez IRAK4; read-out: Percent Control
T27 construct: purchased Eurofins DiscoverX KINOMEscan
From the text: as §2

LRRK2 = biological target: T28, LRRK2 (Homo sapiens, UniProt Q5S007); assay: KINOMEscan 1 μM, LRRK2; format: binding; conditions: 1000 nM; Entrez LRRK2; read-out: Percent Control
T28 construct: purchased Eurofins DiscoverX KINOMEscan
From the text: as §2

ABL1-phosphorylated = biological target: T29, ABL1-phosphorylated (Homo sapiens, UniProt P00519); assay: KINOMEscan 1 μM, ABL1-phosphorylated; format: binding; conditions: 1000 nM; Entrez ABL1; read-out: Percent Control
T29 construct: purchased Eurofins DiscoverX KINOMEscan
From the text: as §2

[1] = biological target: T30, ABL1(Y253F)-phosphorylated (Homo sapiens, UniProt P00519, Y253F); assay: KINOMEscan 1 μM, ABL1(Y253F)-phosphorylated; format: binding; conditions: 1000 nM; Entrez ABL1; read-out: Percent Control
T30 construct: purchased Eurofins DiscoverX KINOMEscan
From the text: as §2

ACVR1B = biological target: T31, ACVR1B (Homo sapiens, UniProt P36896); assay: KINOMEscan 1 μM, ACVR1B; format: binding; conditions: 1000 nM; Entrez ACVR1B; read-out: Percent Control
T31 construct: purchased Eurofins DiscoverX KINOMEscan
From the text: as §2

[2] = biological target: T32, RSK2(Kin.Dom.1-N-terminal) (Homo sapiens, UniProt P51812); assay: DiscoverX KINOMEscan binding assay at 1 μM, RSK2(Kin.Dom.1-N-terminal); conditions: RSK2(Kin.Dom.1-N-terminal) (RPS6KA3); Compound Concentration 1000 nM; read-out: Percent Control
T32 construct: RSK2(Kin.Dom.1-N-terminal); purchased Eurofins DiscoverX KINOMEscan
T32 sequence (P51812 1-397 limits assumed): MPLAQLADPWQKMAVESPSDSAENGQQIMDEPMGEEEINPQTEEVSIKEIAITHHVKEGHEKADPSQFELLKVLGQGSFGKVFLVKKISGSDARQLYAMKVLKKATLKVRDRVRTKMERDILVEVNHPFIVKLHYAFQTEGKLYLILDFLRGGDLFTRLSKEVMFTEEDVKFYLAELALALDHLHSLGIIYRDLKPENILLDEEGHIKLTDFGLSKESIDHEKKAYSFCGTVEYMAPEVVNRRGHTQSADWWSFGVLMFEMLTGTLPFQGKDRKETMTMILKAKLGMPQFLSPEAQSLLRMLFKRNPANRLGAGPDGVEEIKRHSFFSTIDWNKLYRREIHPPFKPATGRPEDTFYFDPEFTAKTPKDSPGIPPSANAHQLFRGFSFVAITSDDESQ
From the text: as §2

Which remaining binding at 1 µM (PIM3) does the source give for `O=C(O)c1ccc(-c2coc3ncc(-c4ccccc4)cc23)cc1Cl` [SGC-CAMKK2-1N (UNC-YL-83)] here?
Its remaining binding at 1 µM is 66%.

What about the remaining binding at 1 µM (CSNK2A1) of the same compound?
Its remaining binding at 1 µM is 80%.

And the remaining binding at 1 µM (MARK4)?
The remaining binding at 1 µM was 100%.

And the remaining binding at 1 µM (CDKL1)?
Its remaining binding at 1 µM is 72%.

What about the remaining binding at 1 µM (ALK(C1156Y)) of the same compound?
The remaining binding at 1 µM was 0%.

And the remaining binding at 1 µM (ACVR2B)?
The remaining binding at 1 µM was 66%.

What about the remaining binding at 1 µM (TESK1) of the same compound?
The remaining binding at 1 µM was 59%.

And the remaining binding at 1 µM (RET(M918T))?
The remaining binding at 1 µM was 99%.

And the remaining binding at 1 µM (PRKCD)?
The remaining binding at 1 µM was 100%.

What about the remaining binding at 1 µM (CSNK1G3) of the same compound?
The remaining binding at 1 µM was 76%.

And the remaining binding at 1 µM (EPHA4)?
The remaining binding at 1 µM was 86%.

What does the source list for `Cc1cccc(-c2cnc3occ(-c4ccc(C(=O)O)c(C5CCCC5)c4)c3c2)c1` [SGC-CAMKK2-1 (YL-36)]?
remaining binding at 1 µM (RAF1): 100%; remaining binding at 1 µM (LZK): 100%; remaining binding at 1 µM (SRMS): 100%; remaining binding at 1 µM (LIMK1): 99%; remaining binding at 1 µM (ERBB2): 100%; remaining binding at 1 µM (SIK2): 85%; remaining binding at 1 µM (NEK10): 88%; remaining binding at 1 µM (PIK3CB): 100%; remaining binding at 1 µM (MEK3): 91%; remaining binding at 1 µM (NDR1): 100%; remaining binding at 1 µM (LTK): 100%; remaining binding at 1 µM (ACVR1): 83%; remaining binding at 1 µM (ERK8): 100%; remaining binding at 1 µM (EGFR(G719S)): 77%; remaining binding at 1 µM (ARK5): 100%; remaining binding at 1 µM (IRAK4): 100%; remaining binding at 1 µM (LRRK2): 70%; remaining binding at 1 µM (ABL1-phosphorylated): 98%; remaining binding at 1 µM [1]: 73%; remaining binding at 1 µM (ACVR1B): 100%; remaining binding at 1 µM [2]: 100%
